Measured values taken from US5494927A, “3,5-di-tertiarybutyl-4-hydroxyphenylmethylene derivatives of 2-substituted thiazolidinones, oxazolidinones, and imidazolidinones as antiinflammatory agents” (priority 1994, dated 1996).
“And” between values parts separate entries of the source, which are not always exact repeats. Identical values can stand only once. Counter-ions that a name gives are not always drawn.

Tests used:
[1] = system: Mycobacterium-induced rat footpad edema; test: Mycobacterium-induced rat footpad edema assay (MFE); type: in vivo; details: for ED40: Rattus norvegicus, swelling 72 hours after Mycobacterium injection, read-out: MFE ID40 (dose at which swelling is inhibited by 40%); for MFE % inhibition of swelling: 72 hours
Procedure: MYCOBACTERIUM-INDUCED RAT FOOTPAD EDEMA ASSAY (MFE): PROTOCOL
Mycobacterium butyricum (5 mg/mL) is suspended in paraffin oil by sonication for 10 minutes in an ice bath. Footpad edema is induced on Day 0 by injecting 0.1 mL of the Mycobacterium mixture into the left hindpaw of lightly anesthetized rats. Swelling in the injected hindpaw is determined by mercury plethysmography 72 hours after injection. Groups of rats are treated with test compounds (suspended in 0.5% hydroxypropyl methylcellulose with 0.2% Tween-80) or vehicle 1 hour before Mycobacterium injection and on Days 1 and 2. Inhibition of swelling is determined by comparing the change in hindpaw volume in compound- and vehicle-treated rats. An ID40 (the dose at which swelling is inhibited by 40%) is calculated by probit analysis or shown as the % inhibition at the dose expressed as μM, i.e., % at μM.

5-lipoxygenase = target: T1, 5-lipoxygenase (Rattus norvegicus, UniProt P12527); test: ARBL whole cell 5-lipoxygenase assay (LTB4 formation in RBL-1 cells); type: cell-based; details: for IC50: A23187 stimulated, read-out: ARBL IC50 for LTB4 inhibition; for inhibition at 10 µM: read-out: ARBL % inhibition of LT
T1 construct: host or cells: RBL-1 rat basophilic leukemia cells
T1 sequence (P12527 1-673): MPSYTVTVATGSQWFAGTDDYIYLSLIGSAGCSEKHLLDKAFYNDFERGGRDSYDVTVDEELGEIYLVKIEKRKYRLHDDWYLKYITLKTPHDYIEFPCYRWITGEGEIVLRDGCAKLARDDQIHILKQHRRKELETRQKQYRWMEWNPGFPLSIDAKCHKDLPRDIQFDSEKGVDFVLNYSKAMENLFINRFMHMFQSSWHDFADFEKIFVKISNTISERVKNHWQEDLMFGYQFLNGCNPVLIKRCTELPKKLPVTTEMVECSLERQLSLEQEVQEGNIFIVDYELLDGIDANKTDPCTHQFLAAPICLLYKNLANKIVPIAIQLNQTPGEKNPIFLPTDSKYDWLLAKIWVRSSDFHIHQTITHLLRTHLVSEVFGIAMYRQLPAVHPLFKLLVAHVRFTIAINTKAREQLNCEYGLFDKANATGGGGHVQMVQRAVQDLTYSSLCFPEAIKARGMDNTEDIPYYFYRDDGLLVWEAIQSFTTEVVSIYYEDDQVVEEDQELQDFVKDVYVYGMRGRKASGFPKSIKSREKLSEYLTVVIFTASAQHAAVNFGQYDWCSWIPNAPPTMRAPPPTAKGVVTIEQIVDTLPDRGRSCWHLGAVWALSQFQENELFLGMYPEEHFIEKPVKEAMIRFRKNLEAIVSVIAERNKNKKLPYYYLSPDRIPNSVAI
Procedure: (§1) ARBL/ARBC WHOLE CELL 5-LIPOXYGENASE AND CYCLOOXYGENASE ASSAYS
(§2) The rat basophilic leukemia cell line (RBL-1) was obtained from the American Type Culture Collection (Rockville, Md.).
(§3) Radioimmunoassay (RIA) kits of LTB4 and PGF2.sbsb.α were obtained from Amersham (Arlington Heights, Ill.) and Seragen (Boston, Me.), respectively.
(§4) All tissue culture media were obtained from GIBCO (Grand Island, N.Y.).
(§5) RBL-1 cells are grown in suspension culture in Eagle's minimum essential medium supplemented with 12% fetal bovine serum at 37° C. in an incubator supplied with air-5% carbon dioxide. Cells are harvested by centrifugation. They are washed with cold phosphate buffered saline pH 7.4 (PBS; NaCl, 7.1 g; Na2 HPO4, 1.15 g; KH2 PO4, 0.2 g; and KCl, 0.2 g/L). Cells are finally suspended in PBS containing 1.0 mM calcium at a density of 2×10^6 cells/mL. Cells are incubated with and without test agent (in DMSO) (1% DMSO is without effect on arachidonic acid metabolism) for 10 minutes at room temperature. Calcium ionophore A23187 (5 μM) is added and cells are incubated for 7 minutes at 37° C. The reaction is stopped by chilling the tubes on ice for 10 minutes. Cells are separated by centrifugation and the supernatant is stored at -20°. Aliquots (100 μL) are analyzed for LTB4 and PGF2.sbsb.α using radioimmunoassay kits as provided by the supplier.
(§6) Table I contains biochemical data obtained from this whole cell assay as IC50 s which are calculated as the amount of test compound causing 50% inhibition or % of inhibition at the named micromoles (μM) of LTB4 or PGF2.sbsb.α formation.

[2] = system: carrageenan-induced rat foot paw edema; test: Carrageenan-induced rat foot paw edema-2 (CFE-2) assay; type: in vivo; details: dosed 1 hour before carrageenan, edema at 5 hours
Procedure: Carrageenan-Induced Rat Foot Paw Edema-2
CARRAGEENAN-INDUCED RAT FOOT PAW EDEMA-2 (CFE-2) ASSAY: PROTOCOL
Carageenan solution (1% w/v) is prepared by dissolving 100 mg carrageenan (Marine Colloidal Div., Springfield, N.J.) in 10 mL of sterile saline (0.9%) solution (Travenol). The solution is vortexed for 30 to 45 minutes. Animals are dosed with compound 1 hour before carrageenan challenge. Foot paw edema is induced by injecting 0.10 mL of the 1% carrageenan subcutaneously into the plantar portion of the right hind paw of each rat under light anesthesia. Initial foot paw volume is measured immediately following carrageenan challenge using mercury plethysmography (Buxco Electronics). Edema is measured 5 hours after carrageenan. The difference between the 5-hour and the initial paw volume is expressed as delta edema. The delta edema for each test group of animals is used to calculate the percent inhibition of edema achieved by the compound at the test dose compared with the vehicle control group. The data in Table I (the dose at which swelling is inhibited by the noted percent) is calculated by probit analysis for the dose at which percent inhibition occurs.

cyclooxygenase = test: ARBC whole cell cyclooxygenase assay (PGF2α formation in RBL-1 cells); type: cell-based, rat; details: for IC50: A23187 stimulated; for ARBC % inhibition of PGF2α: @ 10 μM
Procedure: as §1, §2, §3, §4, §5, §6

gastric ulcers in rats = test: Gastric ulcerogenicity (UD); type: in vivo, Wistar rats; design: key: N is not active at the dose tested; details: @ 200; oral, fasted rats, 6 hours
Procedure: GASTRIC ULCEROGENICITY (UD): PROTOCOL
Male outbred Wistar rats (100-250 g) are fasted for 24 hours. After fasting, test compounds are administered orally (in 2 mL/kg of 0.5% hydroxypropyl methylcellulose) and the rats are denied access to food and water for 6 more hours. The rats are then sacrificed with CO2 so that the stomachs can be removed, opened along the greater curvature, and evaluated for the presence of gastric ulcers. Results are expressed as the percent of rats with gastric ulcers at a given dose or as the UD50 (the dose which causes ulcers in 50% of the rats).

| IC50 (5-lipoxygenase) | IC50 (cyclooxygenase) [nM] | Compound | CFE % inhibition of edema ([2]; @ 10) [%] | ARBC % inhibition of PGF2α (cyclooxygenase) [%] | inhibition at 10 µM (5-lipoxygenase) [%] | CFE % inhibition of edema ([2]; @ 30) [%] | also measured |
| --- | --- | --- | --- | --- | --- | --- | --- |
| 1700 nM | 330 | CON(C)C1=NC(=O)/C(=C/c2cc(C(C)(C)C)c(O)c(C(C)(C)C)c2)S1 | 41 |  |  |  | ED40 [1]: 13.2 mg/kg |
|  |  | 5-[[3,5-Bis(1,1-dimethylethyl)-4-hydroxylphenyl]methylene]-2-[[2-(dimethylamino)ethyl]amino-4(5H-thiazolone, (Z)- [Example 10] |  | 87 |  |  |  |
|  |  | CC(C)(C)c1cc(/C=C2\SC(N)=NC2=O)cc(C(C)(C)C)c1O [Example 1B, 5-[[3,5-Bis(1,1-dimethylethyl)-4-hydroxyphenyl]methylene]-2-imino-4-thiazolidinone, (Z)-, methanesulfonate (1:1) salt] |  | 80 | 100 |  | ED40 [1]: < 10 mg/kg; Gastric Ulcerogenicity UD50 (gastric ulcers in rats): N |
|  |  | CC(C)(C)c1cc(/C=C2\SC(=NO)NC2=O)cc(C(C)(C)C)c1O [Example 4, 5-[[3,5-bis(1,1-dimethylethyl)-4-hydroxyphenyl]methylene]-2,4-thiazolidinedione, 2-oxime (Z)-] | 32 | 81 | 100 | 17 |  |
| 500 nM and 800 nM | < 600 | CSC1=NC(=O)/C(=C/c2cc(C(C)(C)C)c(O)c(C(C)(C)C)c2)S1 [Example 5, 5-[[3,5-Bis(1,1-dimethylethyl)-4-hydroxyphenyl]methylene]-2,(methylthio)-4(5H)-thiazolone, (Z)-] | 36 |  |  | 47 | MFE % inhibition of swelling ([1]; @ 2): 27%; MFE % inhibition of swelling ([1]; @ 50): 23% |
| 390 nM | 4550 | CC(C)(C)c1cc(/C=C2\SC(=NNC(N)=S)NC2=O)cc(C(C)(C)C)c1O [Example 7, 2-[5-[[3,5-Bis(1,1-dimethylethyl)-4-hydroxyphenyl]methylene]-4-oxo-2-thiazolidinylidene]hydrazine-carbothiamide, (Z)-] |  |  |  |  |  |
|  | 160 | CC(C)(C)c1cc(C=C2SC(NC#N)=NC2=O)cc(C(C)(C)C)c1O [Example 9, [5-[[3,5-Bis(1,1-dimethylethyl)-4,hydroxyphenyl]methylene]-4,5-dihydro-4-oxo-2-thiazolyl]cyanamide] |  |  |  | 49 | MFE % inhibition of swelling ([1]; @ 3): 32% |
|  |  | CC(NC1=NC(=O)C(=Cc2cc(C(C)(C)C)c(O)c(C(C)(C)C)c2)S1)C(=O)O (centres unmarked) [Example 12] |  | 55 | 100 |  |  |
